Measurements published in patent publication US7781580B2, “Stilbene derivatives as new cancer therapeutic agents” (Virginia Commonwealth University, priority 2007, dated 2010).

Assays:
[1] = system: SNU423 hepatocellular carcinoma cells; experiment: Alamar Blue cell growth inhibition, SNU423; type: cell-based
Procedure, shortened: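 Cells at 50% confluence were treated for 48 h in triplicate with 0-10 μM compound or 0.1% DMSO vehicle. Alamar Blue was added at 1/10 volume for 2 h, and absorbance at 570 and 600 nm gave % growth via the manufacturer's extinction-coefficient formula relative to vehicle controls.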

[2] = system: MDA-MB231 breast cancer cells; experiment: Alamar Blue cell growth inhibition, MDA-MB231; type: cell-based; conditions: based on previous IC50 data
Procedure, shortened: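 Cells at 50% confluence treated in triplicate for 48 hours with 0, 0.01, 0.03, 0.1, 0.3, 1.0, 3.0, 10 μM compound or 0.1% DMSO vehicle. Alamar Blue added at 1/10 volume for 2 hours, absorbance at 570 and 600 nm; percentage growth calculated against untreated cells using the extinction-coefficient formula.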

[3] = system: SKOV3 ovarian cancer cells; experiment: Alamar Blue cell growth inhibition, SKOV3; type: cell-based
Procedure, shortened: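 SKOV3 cells at 50% confluence were treated 48 h with compounds, against 0.1% DMSO vehicle controls. Growth was read by Alamar Blue absorbance at 570 and 600 nm, with % growth inhibition from the manufacturer's extinction-coefficient formula. Each concentration was run in triplicate.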

MDA-MB231 cells = experiment: immunofluorescent staining of tubulin, MDA-MB231; type: cell-based; conditions: CA4 10 nM, stilbene 4a 100 nM, vincristine 100 nM, 5b 3 μM; 16 hours
Source text: Nuclei were stained with 4′,6-diamidino-2-phenylindole (DAPI). Control cells show the reticular pattern of the microtubule network.

Chk1−/− cells = experiment: cell cycle analysis, Chk1-/- MDA-MB231 derivative; type: cell-based
Description: Due to the structural similarity between stilbene 4a and CA4, we investigated the difference in the biological activity of these two compounds in MDA-MB231 breast cancer cells and their Chk2−/− derivatives. […] MDA-MB231 cells were treated with 10 nM stilbene 4a or 1 nM CA4. […] However, a difference in cell cycle change was observed following treatment with 30 nM of stilbene 4a versus 3 nM of CA4. […] This was also the case for cells treated with 100 nM stilbene 4a. A significant subG1/0 population was also noted. […] One possible effect could be a DNA damage response, which is a common mechanism of multiple chemotherapeutic agents but not one of pure microtubule-interfering agents such a paclitaxel or vincristine. […] We then obtained conditional Chk1−/− and Chk2−/− cells, which were derived from the same MDA-MB231 cells for the same flow cytometry analysis. […] In contrast, Chk2−/− cells were more sensitive to stilbene 4a. […] This mechanism is not obvious in higher drug concentrations at which the G2 arrest from microtubule interference is dominant. Therefore, in addition to their microtubule interfering effect, stilbenes have another mechanism to induce cell death. Thus, the use of a Chk2 inhibitor in combination with stilbenes may be a viable approach to enhancing the beneficial therapeutic effects of stilbenes.

[4] = system: HL60 leukemic cells (xenograft); experiment: HL60 xenograft model in SCID mice; type: in vivo
Description: FIG. 20. Effect of stilbene 4a in vivo. (a) Induction of cell death in vivo by stilbene 4a. Tumor was harvested at 24 hours after treatment for TUNEL assay. (b) Histological sections of tumor. Tumor harvested at 24 hours after injection of stilbene 4a was analyzed by H & E staining. The area with lighter color is the necrotic region. (c) Tumor growth suppression. SCID mice were injected subcutaneously with 5×10^6 HL60 cells at each flank. Once the diameter of tumor reached 5 mm in diameter in majority of mice, mice were treated with 5 daily injection of stilbene 4a. Tumor volume was calculated by the long and short axis of tumor and plotted against days. Each group contains 5 mice.
HL60 leukemic cells were injected subcutaneously into ICR-scid mice (Taconic Inc.) on flank. After tumor becomes visible after 12 days, Mice will be treated with stilbene 4a by intravenous injection after dissolved in 10% DMSO in normal saline. For acute effect study, mice were sacrificed 24 hours after injection and tumor and bone marrow were harvested for histological staining and flow cytometry analysis. For long term effect study, stilbenes were injected intravenously from tail veins at 2 or 10 mg/kg for 5 consecutive days. Negative control mice were treated with 10% DMSO in normal saline and positive control mice were treated with Ara-C at 5 mg/kg. Tumor volume was measured twice a week for 4 weeks by the long and short axes of tumor. Volume was calculated by the formula ab^2/2, in which “a” represents the long axis and “b” the short axis of tumor. Mice were euthanized if the calculated tumor reached 10% of the body weight.

SMILES: COc1cc(/C=C\c2ccc(OC)c(N)c2)cc(OC)c1 [4a, (Z)-5-[2-(3,5-Dimethoxy-phenyl)-vinyl]-2-methoxy-phenylamine]
- relative potency ([1]; SNU423): much more potent than the trans counterparts
- effective concentration, blocking cell proliferation ([1]; SNU423, 48 hours): 0.03 µM
- times less potent than CA4 [2]: 10
- IC50 ([3]; Homo sapiens, SK-OV-3): 50 to 100 nM
- effective / active concentration ([3]; SKOV3, 48 hours): 0.1 µM
- microtubule pattern (MDA-MB231 cells): did not completely disrupt microtubule formation
- sensitivity versus MDA-MB231 (Chk1−/− cells): more resistant
- tumor growth suppression ([4]; 10 mg/kg intravenously daily for 5 days, 12 days after the first injection): 50%
- percentage of apoptosis in tumor (TUNEL) ([4]; 10 mg/kg intravenously, 24 hours): 22%
- percentage of apoptosis in tumor (TUNEL) ([4]; 50 mg/kg intravenously, 24 hours): 62%
- percentage of apoptosis in tumor (TUNEL) ([4]; 100 mg/kg intravenously, 24 hours): 58%
- bone marrow TUNEL (acute marrow toxicity) ([4]; 50 and 100 mg/kg, 24 hours): No increase in TUNEL positive cells was observed
